Results reported in the supplement of paper PMC13380429.

What was measured:
Conditions in all cases: 72 h
HepG2 [1] = test: cell viability relative to DMSO; higher = less toxic
U2OS [2] = test: as above
Calu-3 [3] = test: as above
Vero E6 [4] = test: as above
Caco-2 [5] = test: as above
HepG2 [6] = test: drug sensitivity score (DSS) for viability; higher = more toxic; extreme values may be limits of the assay
U2OS [7] = test: as above
Calu-3 [8] = test: as above
Vero E6 [9] = test: as above
Caco-2 [10] = test: as above
HepG2 [11] = test: relative viability EC50 (midpoint between 100% and the lowest measured viability); higher = less toxic
U2OS [12] = test: as above
Calu-3 [13] = test: as above
Vero E6 [14] = test: as above
Caco-2 [15] = test: as above

SMILES	cell viability (HepG2 [1]; 1 nM) [%]	cell viability (HepG2 [1]; 10 nM) [%]	cell viability (HepG2 [1]; 100 nM) [%]	cell viability (HepG2 [1]; 1000 nM) [%]	cell viability (HepG2 [1]; 10000 nM) [%]	cell viability (U2OS [2]; 1 nM) [%]	cell viability (U2OS [2]; 10 nM) [%]	cell viability (U2OS [2]; 100 nM) [%]	cell viability (U2OS [2]; 1000 nM) [%]	cell viability (U2OS [2]; 10000 nM) [%]	cell viability (Calu-3 [3]; 1 nM) [%]	cell viability (Calu-3 [3]; 10 nM) [%]	cell viability (Calu-3 [3]; 100 nM) [%]	cell viability (Calu-3 [3]; 1000 nM) [%]	cell viability (Calu-3 [3]; 10000 nM) [%]	cell viability (Vero E6 [4]; 1 nM) [%]	cell viability (Vero E6 [4]; 10 nM) [%]	cell viability (Vero E6 [4]; 100 nM) [%]	cell viability (Vero E6 [4]; 1000 nM) [%]	cell viability (Vero E6 [4]; 10000 nM) [%]	cell viability (Caco-2 [5]; 1 nM) [%]	cell viability (Caco-2 [5]; 10 nM) [%]	cell viability (Caco-2 [5]; 100 nM) [%]	cell viability (Caco-2 [5]; 1000 nM) [%]	cell viability (Caco-2 [5]; 10000 nM) [%]	drug sensitivity score (HepG2 [6])	drug sensitivity score (U2OS [7])	drug sensitivity score (Calu-3 [8])	drug sensitivity score (Vero E6 [9])	drug sensitivity score (Caco-2 [10])	relative viability EC50 (HepG2 [11]) [µM]	relative viability EC50 (U2OS [12]) [µM]	relative viability EC50 (Calu-3 [13]) [µM]	relative viability EC50 (Vero E6 [14]) [µM]	relative viability EC50 (Caco-2 [15]) [µM]
CN1CCC(=C2c3ccccc3Sc3ccccc32)CC1 [pimethixene]	108	98.9	121	84.7	92.1	103	97.8	102	99	95.5	103	105	100	100	101	103	101	106	105	98.4	100	89.7	96.9	101	102	1.2	0	0	0	0	> 10	> 10	> 10	> 10	> 10
CC1(C)C(=O)NC2=C1C(=O)C(=O)c1ccccc12 [BVT-948]	97.5	95.4	88.7	94.8	21.3	101	98	95.8	100	0.1	98	101	104	102	20.3	98.3	102	104	97.9	19.6	92.1	104	99.6	86.8	0.9	5.1	5.6	4.2	4.7	7.7	2.63	3.17	3.34	2.97	2.09
CNC(=O)c1ccc2cc([C@@]3(O)CCn4cncc43)ccc2c1 [orteronel]	103	104	90.1	104	90	99.8	99	101	99	98.9	102	108	99.4	105	108	99.7	104	99.8	100	94.6	88.1	91.3	94.2	99.8	96.6	0	0	0	0	0	> 10	> 10	> 10	> 10	> 10
COc1ccc(C(=O)Nc2c(Cl)cncc2Cl)cc1OC1CCCC1 [piclamilast]	90.4	86	92.7	102	101	98.2	95.7	103	98.3	94.8	97.5	89.4	102	99.9	87.5	98.3	95	92.4	91.4	82	96.6	97.3	102	107	98	0	0	0	0.8	0	> 10	> 10	> 10	> 10	> 10
COc1ccc(CCO[C@@H]2CCCC[C@H]2N2CC[C@@H](O)C2)cc1OC [vernakalant]	89.2	112	99.2	100	110	102	94.1	103	95.2	101	111	97.1	106	104	109	97.8	97.3	91.7	98.6	106	101	91.2	93.9	101	106	0	0	0	0	0	> 10	> 10	> 10	> 10	> 10
Cc1cc(NC(=O)Nc2ccc(F)c(F)c2)n(-c2ccccc2)n1 [ML297]	105	90.5	108	91.6	98.1	97.1	101	101	103	98.2	103	98.5	105	97.4	98.7	104	99.5	98.2	102	99.5	96.9	97	95.9	108	99.2	0	0	0	0	0	> 10	> 10	> 10	> 10	> 10
CN1CCN(C(=O)CN[C@@H]2C[C@H]2c2ccc(OCc3ccccc3)cc2)CC1 [RN-1]	87.4	103	99.9	94.2	84.9	103	98.3	102	96.7	96	89.9	82.5	96.1	94.5	108	99.5	102	105	92.2	89.1	109	95.2	90.2	89.2	83.3	0.7	0	0	0.1	1.5	> 10	> 10	> 10	> 10	> 10
CN(C)CCOC(=O)COc1ccc(Cl)cc1 [meclofenoxate]	92.2	93.8	105	94.4	108	92.5	99.7	97.3	98.3	103	98	95.8	87.8	106	106	95.5	93.4	95.3	92.8	111	94.5	98.1	96.2	97.4	99.5	0	0	0	0	0	> 10	> 10	> 10	> 10	> 10
CCOC(=O)c1ccccc1OC(=O)CCCCCCCC(=O)Oc1ccccc1C(=O)OCC [TU-2100]	97.9	104	106	96.7	98.9	102	100	97.3	99.6	99.3	94.1	104	92.3	95.7	108	95.5	101	102	101	99.9	97.9	101	92.1	95.6	100	0	0	0	0	0	> 10	> 10	> 10	> 10	> 10
CCCCC/C=C\C/C=C\CCCCCCCC(=O)NCCCC(=O)O [GABA-linoleamide]	74.4	97.2	95.6	98.2	120	95.2	97.9	99.3	102	95.8	86	97.9	87	111	90.6	106	108	111	99.1	114	96.9	110	96.2	87.5	126	0	0	0	0	0	> 10	> 10	> 10	> 10	> 10
O=C(O)c1ccc2[nH]cc(CCCCN3CC=C(c4ccccc4)CC3)c2c1 [carmoxirole]	98.4	93	86.7	100	88.3	103	99	96.9	100	101	98.7	112	92.4	96	90.8	99.2	100	93.6	102	95.8	106	107	103	91.2	105	0	0	0	0	0	> 10	> 10	> 10	> 10	> 10
